For data set [1] the following is noted: Workplace Safety Site, Public Notice No. 166 of Mar. 27, 2012; cited from earlier work.
The nature of data set [2]: solubility in organic solvents. The format is physicochemical. The source says:
(§1) The compound (A-1) is the starting material of the step A, but its solubility in organic solvents is low.

Data set [3] can be described thus: genotoxicity, consideration of the present inventors. As to conditions: according to the consideration of the present inventors.
Text: as §1

The nature of data set [4]: decomposition on heating after dissolution in a solvent. In kind it is physicochemical. Particulars: heated after dissolved in a solvent.

Molecules are shown by their SMILES.

The source of these data is patent US11186547B2, “High-purity quinoline derivative and method for manufacturing same” (Eisai R&D Management Co., Ltd., priority 2014, dated 2021).

On to `COc1cc2nccc(Oc3ccc(N)c(Cl)c3)c2cc1C(N)=O` [compound (I), 4-(4-Amino-3-chlorophenoxy)-7-methoxy-quinoline-6-carboxamide], for which, in data set [1], the mutagenicity entry is on record as “strong mutagenicity was recognized”.
As to `COc1cc2nccc(Cl)c2cc1C(N)=O` [compound (A-1), 4-chloro-7-methoxy-quinoline-6-carboxamide], the “solubility in organic solvents” value in data set [2] is given as “low”. Also, the genotoxicity entry in data set [3] is “possibility that the compound (A-1) exhibits genotoxicity”.
Take `COc1cc2nccc(Oc3ccc(NC(=O)NC4CC4)c(Cl)c3)c2cc1C(N)=O` [methanesulfonate of the compound (IV), 4-[3-chloro-4-(cyclopropylaminocarbonyl)aminophenoxy]-7-methoxy-6-quinoline-carboxamide Methanesulfonate]: in data set [4], the decomposition product formed entry is given as “the compound (I) is formed as a decomposition product”.
